Measured values: the supplement of paper PMC10307832

Assays:
Test in all cases: relative viability (nuclei count vs DMSO), 5 days (fraction); higher = more cells survive
[1] = compound: CC1=C(C(=NN1)C)CC2=C(C3=C(S2)N(C(=O)N(C3=O)C)CC(C)C)C(=O)N4C[C@@H](CO4)O + C[C@@H](Oc1cc(-c2cnn(C3CCNCC3)c2)cnc1N)c1c(Cl)ccc(F)c1Cl [Crizotinib] (partner 1 µM)
In short: (§1)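 Values are medians from duplicate plates. Each reflects relative viability, defined as the nuclei count of treated wells over that of vehicle wells. Lung cancer cell lines in 1536-well plates were pin-tool dosed one day after seeding with one drug alone or with a fixed anchor-drug dose plus five library-drug doses (not always all listed) in √10 steps, then fixed, stained and imaged at 4× after 5 days.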

[2] = compound: CC1=C(C(=NN1)C)CC2=C(C3=C(S2)N(C(=O)N(C3=O)C)CC(C)C)C(=O)N4C[C@@H](CO4)O + CCNC(=O)c1noc(-c2cc(C(C)C)c(O)cc2O)c1-c1ccc(CN2CCOCC2)cc1 [Luminespib] (partner 0.01 µM)
In short: as §1

IDH-C35 + OSI-027 = compound: Cc1ccccc1C(C(=O)NC1CCCCC1)N(C(=O)Cn1ccnc1C)c1cccc(F)c1 [IDH-C35] + COc1cccc2cc(-c3nc([C@H]4CC[C@H](C(=O)O)CC4)n4ncnc(N)c34)[nH]c12 [OSI-027] (partner 0.5 µM)
In short: as §1

[3] = compound: CC1=C(C(=NN1)C)CC2=C(C3=C(S2)N(C(=O)N(C3=O)C)CC(C)C)C(=O)N4C[C@@H](CO4)O + Nc1nc2[nH]cc(CCc3ccc(C(=O)N[C@@H](CCC(=O)O)C(=O)O)cc3)c2c(=O)[nH]1 [Pemetrexed] (partner 0.2 µM)
In short: as §1

NCI-H23 was tested, and the relative viability ([1]; first compound 0.0025 µM) was 0.519, the relative viability ([1]; first compound 0.007906 µM) was 0.613 and the relative viability ([1]; first compound 0.025 µM) was 0.499. For the same cell line, the relative viability ([1]; first compound 0.07906 µM) was 0.568, the relative viability ([1]; first compound 0.25 µM) was 0.604 and the relative viability ([2]; first compound 0.0025 µM) was 0.242. The relative viability ([2]; first compound 0.07906 µM) was 0.23, the relative viability ([2]; first compound 0.25 µM) was 0.219 and the relative viability (IDH-C35 + OSI-027; first compound 0.08 µM) was 0.582. It also gave a relative viability (IDH-C35 + OSI-027; first compound 0.253 µM) of 0.635, a relative viability (IDH-C35 + OSI-027; first compound 0.8 µM) of 0.558 and a relative viability (IDH-C35 + OSI-027; first compound 2.53 µM) of 0.392. For the same cell line, the relative viability (IDH-C35 + OSI-027; first compound 8 µM) was 0.453, the relative viability ([3]; first compound 0.0025 µM) was 0.825 and the relative viability ([3]; first compound 0.007906 µM) was 0.635. For the same cell line, the relative viability ([3]; first compound 0.025 µM) was 0.689, the relative viability ([3]; first compound 0.07906 µM) was 0.697 and the relative viability ([3]; first compound 0.25 µM) was 0.697.
With NCI-H322M the relative viability ([1]; first compound 0.0025 µM) was 1.03, the relative viability ([1]; first compound 0.007906 µM) was 1.03 and the relative viability ([1]; first compound 0.025 µM) was 0.758. For the same cell line, the relative viability ([1]; first compound 0.07906 µM) was 0.927, the relative viability ([1]; first compound 0.25 µM) was 0.998 and the relative viability ([2]; first compound 0.0025 µM) was 0.927. The relative viability ([2]; first compound 0.007906 µM) was 0.714, the relative viability ([2]; first compound 0.025 µM) was 0.86 and the relative viability ([2]; first compound 0.07906 µM) was 0.887. It also gave a relative viability ([2]; first compound 0.25 µM) of 0.861, a relative viability (IDH-C35 + OSI-027; first compound 0.08 µM) of 0.585 and a relative viability (IDH-C35 + OSI-027; first compound 0.253 µM) of 0.566. The relative viability (IDH-C35 + OSI-027; first compound 0.8 µM) was 0.628, the relative viability (IDH-C35 + OSI-027; first compound 2.53 µM) was 0.549 and the relative viability (IDH-C35 + OSI-027; first compound 8 µM) was 0.511. For the same cell line, the relative viability ([3]; first compound 0.0025 µM) was 0.526, the relative viability ([3]; first compound 0.007906 µM) was 0.61 and the relative viability ([3]; first compound 0.025 µM) was 0.645. The relative viability ([3]; first compound 0.07906 µM) was 0.629 and the relative viability ([3]; first compound 0.25 µM) was 0.578.
With NCI-H358 the relative viability ([1]; first compound 0.0025 µM) was 0.639, the relative viability ([1]; first compound 0.007906 µM) was 0.543 and the relative viability ([1]; first compound 0.025 µM) was 0.566. It also gave a relative viability ([1]; first compound 0.07906 µM) of 0.66, a relative viability ([1]; first compound 0.25 µM) of 0.7 and a relative viability ([2]; first compound 0.0025 µM) of 0.342. The relative viability ([2]; first compound 0.007906 µM) was 0.471, the relative viability ([2]; first compound 0.025 µM) was 0.401 and the relative viability ([2]; first compound 0.07906 µM) was 0.447. It also gave a relative viability ([2]; first compound 0.25 µM) of 0.308, a relative viability (IDH-C35 + OSI-027; first compound 0.08 µM) of 0.776 and a relative viability (IDH-C35 + OSI-027; first compound 0.253 µM) of 0.757. For the same cell line, the relative viability (IDH-C35 + OSI-027; first compound 0.8 µM) was 0.698, the relative viability (IDH-C35 + OSI-027; first compound 2.53 µM) was 0.775 and the relative viability (IDH-C35 + OSI-027; first compound 8 µM) was 0.756. The relative viability ([3]; first compound 0.0025 µM) was 0.172, the relative viability ([3]; first compound 0.007906 µM) was 0.185 and the relative viability ([3]; first compound 0.025 µM) was 0.159. For the same cell line, the relative viability ([3]; first compound 0.07906 µM) was 0.157 and the relative viability ([3]; first compound 0.25 µM) was 0.181.
NCI-H441 showed a relative viability ([1]; first compound 0.0025 µM) of 0.715, a relative viability ([1]; first compound 0.007906 µM) of 0.774 and a relative viability ([1]; first compound 0.025 µM) of 0.608. The relative viability ([1]; first compound 0.07906 µM) was 0.889, the relative viability ([1]; first compound 0.25 µM) was 0.945 and the relative viability ([2]; first compound 0.0025 µM) was 0.413. The relative viability ([2]; first compound 0.007906 µM) was 0.405, the relative viability ([2]; first compound 0.025 µM) was 0.326 and the relative viability ([2]; first compound 0.07906 µM) was 0.365. The relative viability ([2]; first compound 0.25 µM) was 0.269, the relative viability (IDH-C35 + OSI-027; first compound 0.08 µM) was 0.617 and the relative viability (IDH-C35 + OSI-027; first compound 0.253 µM) was 0.647. It also gave a relative viability (IDH-C35 + OSI-027; first compound 0.8 µM) of 0.538, a relative viability (IDH-C35 + OSI-027; first compound 2.53 µM) of 0.675 and a relative viability (IDH-C35 + OSI-027; first compound 8 µM) of 0.579. The relative viability ([3]; first compound 0.0025 µM) was 0.253, the relative viability ([3]; first compound 0.007906 µM) was 0.299 and the relative viability ([3]; first compound 0.025 µM) was 0.263. The relative viability ([3]; first compound 0.07906 µM) was 0.244 and the relative viability ([3]; first compound 0.25 µM) was 0.263.
NCI-H460 was tested, and the relative viability ([1]; first compound 0.0025 µM) was 0.865, the relative viability ([1]; first compound 0.007906 µM) was 1.1 and the relative viability ([1]; first compound 0.025 µM) was 0.848. It also gave a relative viability ([1]; first compound 0.07906 µM) of 1.12, a relative viability ([1]; first compound 0.25 µM) of 0.948 and a relative viability ([2]; first compound 0.0025 µM) of 0.0312. It also gave a relative viability ([2]; first compound 0.007906 µM) of 0.0506, a relative viability ([2]; first compound 0.025 µM) of 0.037 and a relative viability ([2]; first compound 0.07906 µM) of 0.0359. It also gave a relative viability ([2]; first compound 0.25 µM) of 0.028, a relative viability (IDH-C35 + OSI-027; first compound 0.08 µM) of 0.659 and a relative viability (IDH-C35 + OSI-027; first compound 0.253 µM) of 0.757. For the same cell line, the relative viability (IDH-C35 + OSI-027; first compound 0.8 µM) was 0.681, the relative viability (IDH-C35 + OSI-027; first compound 2.53 µM) was 0.644 and the relative viability (IDH-C35 + OSI-027; first compound 8 µM) was 0.602. For the same cell line, the relative viability ([3]; first compound 0.0025 µM) was 0.0637, the relative viability ([3]; first compound 0.007906 µM) was 0.0564 and the relative viability ([3]; first compound 0.025 µM) was 0.0621. The relative viability ([3]; first compound 0.07906 µM) was 0.0635 and the relative viability ([3]; first compound 0.25 µM) was 0.0733.
In the case of NCI-H520, the relative viability ([1]; first compound 0.0025 µM) was 0.717, the relative viability ([1]; first compound 0.007906 µM) was 0.671 and the relative viability ([1]; first compound 0.025 µM) was 0.307. For the same cell line, the relative viability ([1]; first compound 0.07906 µM) was 0.291, the relative viability ([1]; first compound 0.25 µM) was 0.36 and the relative viability ([2]; first compound 0.0025 µM) was 0.211. The relative viability ([2]; first compound 0.007906 µM) was 0.24, the relative viability ([2]; first compound 0.025 µM) was 0.217 and the relative viability ([2]; first compound 0.07906 µM) was 0.199. For the same cell line, the relative viability ([2]; first compound 0.25 µM) was 0.185, the relative viability (IDH-C35 + OSI-027; first compound 0.08 µM) was 0.257 and the relative viability (IDH-C35 + OSI-027; first compound 0.253 µM) was 0.243. It also gave a relative viability (IDH-C35 + OSI-027; first compound 0.8 µM) of 0.268, a relative viability (IDH-C35 + OSI-027; first compound 2.53 µM) of 0.276 and a relative viability (IDH-C35 + OSI-027; first compound 8 µM) of 0.265. For the same cell line, the relative viability ([3]; first compound 0.0025 µM) was 0.731, the relative viability ([3]; first compound 0.007906 µM) was 0.711 and the relative viability ([3]; first compound 0.025 µM) was 0.468. It also gave a relative viability ([3]; first compound 0.07906 µM) of 0.526 and a relative viability ([3]; first compound 0.25 µM) of 0.504.
In the case of NCI-H596, the relative viability ([1]; first compound 0.0025 µM) was 1.02, the relative viability ([1]; first compound 0.007906 µM) was 1.06 and the relative viability ([1]; first compound 0.025 µM) was 0.954. For the same cell line, the relative viability ([1]; first compound 0.07906 µM) was 1.04, the relative viability ([1]; first compound 0.25 µM) was 1.16 and the relative viability ([2]; first compound 0.0025 µM) was 0.991. It also gave a relative viability ([2]; first compound 0.007906 µM) of 1.12, a relative viability ([2]; first compound 0.025 µM) of 0.992 and a relative viability ([2]; first compound 0.07906 µM) of 1.03. For the same cell line, the relative viability ([2]; first compound 0.25 µM) was 1.24, the relative viability (IDH-C35 + OSI-027; first compound 0.08 µM) was 0.787 and the relative viability (IDH-C35 + OSI-027; first compound 0.253 µM) was 0.806. For the same cell line, the relative viability (IDH-C35 + OSI-027; first compound 0.8 µM) was 0.709, the relative viability (IDH-C35 + OSI-027; first compound 8 µM) was 0.629 and the relative viability ([3]; first compound 0.0025 µM) was 0.481. For the same cell line, the relative viability ([3]; first compound 0.007906 µM) was 0.544, the relative viability ([3]; first compound 0.025 µM) was 0.484 and the relative viability ([3]; first compound 0.07906 µM) was 0.481. The relative viability ([3]; first compound 0.25 µM) was 0.488.
With NCI-H647 the relative viability ([1]; first compound 0.0025 µM) was 1.26, the relative viability ([1]; first compound 0.007906 µM) was 1.32 and the relative viability ([1]; first compound 0.025 µM) was 1.02. For the same cell line, the relative viability ([1]; first compound 0.07906 µM) was 1.05, the relative viability ([1]; first compound 0.25 µM) was 1.38 and the relative viability ([2]; first compound 0.0025 µM) was 0.135. For the same cell line, the relative viability ([2]; first compound 0.007906 µM) was 0.138, the relative viability ([2]; first compound 0.025 µM) was 0.171 and the relative viability ([2]; first compound 0.07906 µM) was 0.325. For the same cell line, the relative viability ([2]; first compound 0.25 µM) was 0.163, the relative viability (IDH-C35 + OSI-027; first compound 0.08 µM) was 0.683 and the relative viability (IDH-C35 + OSI-027; first compound 0.253 µM) was 0.676. For the same cell line, the relative viability (IDH-C35 + OSI-027; first compound 0.8 µM) was 0.573, the relative viability (IDH-C35 + OSI-027; first compound 2.53 µM) was 0.569 and the relative viability (IDH-C35 + OSI-027; first compound 8 µM) was 0.665. It also gave a relative viability ([3]; first compound 0.0025 µM) of 0.194, a relative viability ([3]; first compound 0.007906 µM) of 0.177 and a relative viability ([3]; first compound 0.025 µM) of 0.173. It also gave a relative viability ([3]; first compound 0.07906 µM) of 0.199 and a relative viability ([3]; first compound 0.25 µM) of 0.195.
